# Assay results as given in patent publication US9744186B2 (priority 2012, dated 2017).
# Columns and labels:
# HCV luciferase replicon = HCV luciferase replicon IC50 assay in Huh7 cells; settings: for IC50: Hepatitis C virus; for Therapeutic Index (TC50/IC50): TC50 in Huh7 / IC50 HCV replicon, 48 h
# Protocol: Plating Cells: The Luciferase replicon cell line was passaged when it was at about 70% confluency. The cells were counted by using a hemocytometer and diluted to 1×10^5 cells per mL in DMEM+10% FBS+[…] G415. The cells were plated as follows: 100 μL of the cells (10,000 cells) per well in a white-walled 96-well plate. The cells were allowed to attach for 24 hours at 37° C.
# Treating the cells: Media (DMEM+2% FBS) was pre-warmed to 37° C. […] The 96-well plate was removed from the 37° C. incubator, and the media replaced on the plate with the serial dilutions of the test drug. The plate was then returned to 37° C. for 48 h.
# Luciferase Assay: The Bright-Glo reagent (Promega Corporation, Madison, Wis.) was removed from the −80° C. freezer and allowed to thaw it at 4° C. in the dark. The amount of reagent necessary for the experiment (3.65 mL) was removed, and the remaining reagent was returned to −80° C. The Glo Lysis Buffer and the Bright Glow reagent were allowed to warm to room temperature for 30 min in the dark. The 96 well plate was removed from the incubator and the cells to allowed cool to room temperature for 30 min. The media was removed from the cells, and each well was gently washed in 100 μL of phosphate buffered saline (PBS). The PBS was removed and then 50 μL of the Glo Lysis Buffer was added to each well, followed by gently rocking the plate for 15 min at room temperature in the dark to ensure complete cell lysis. To each well of the 96-well plate was added 50 μL of the Bright Glo reagent and it was mixed well with the lysate. The plate was inserted into a GloMax 96 plate reader and allowed to sit for 5 min in the dark for the luciferase reaction to reach a steady state. The luminescence on the plate was read by using the pre-installed “Bright Glo” Promega program (Synergy Software) and the data were collected and saved. The data were fit to a 4 parameter logistic curve using Kaleidagraph using the following equation: 100/(1+(x/m3)^m4).
# The data in Table 1 were determined for cells exposed to drug for 48 h. The IC50 is the concentration of each compound necessary to inhibit the replication of the HCV luciferase replicon to 50%.
# That is, the cells were exposed to drug for 2 h at 37° C., followed by 46 h at 37° C. or incubated in the presence of drug for 48 h at 37° C.
# [1] = TC50 MTS assay with human cancer cell lines: HEK293; type: cell-based; settings: HEK293 cells, 96 h drug treatment
# Protocol: (§1) Plating Cells: The Huh7, HEPG2, HEK293, MCF-7, PK9, RPK9, or BxPC3 cells were passaged when they were about 70% confluent. The cells were counted using a hemocytometer, and then diluted cells to 0.5×10^5 cells per mL in DMEM+10% FBS. 100 µL of the cells (5,000 cells) were plated per well in a clear 96-well plate. The cells were allowed to attach for 24 hours at 37° C.
# (§2) Treating the cells: Pre-warm the DMEM media without phenol red+2% FBS media to 37° C. […] This will bring the final DMSO concentration to 0.5%. Use these 0.5 mM dilutions to further serially the drugs in DMEM without phenol red+2% FBS+0.5% DMSO. This will keep the concentration of DMSO in each condition identical. Remove the 96-well plate from the 37° C. incubator. Replace the media on the plate with the dilutions of the drugs. Stagger these treatments by 1 h and write the treatment time on each set of plates. Return to 37° C. for 48 h or 96 h as indicated.
# (§3) MTS Assay: The reagents from CellTiter 96 kit (Promega Corporation, Madison, Wis.) were thawed at room temperature in the dark for 1 h. The 96-well plate was removed from the 37° C. incubator at 48 h after drug treatment. 20 μL of the combined MTS/PMS reagent to each well of the plate, mixed, and the plate returned to 37° C. The absorbance of each well at 490 nm and 650 nm was determined using the Flexstation 3 microplate reader in endpoint mode every hour for 3 h. The solutions in the wells were mixed prior to each reading. Fit Data to the Emax model: y=(Emax*x)/(TC50+x), where Emax is the maximum inhibition and TC50 is the inhibitory dose 50%. Alternatively, fit the data to the Emax sigmoidal model: y=(Emax*x^slope)/(TC50^slope+x^slope), where slope is the Hill Slope.
# (§4) Each TC50 was the average value of three measurements as described herein. […] The RPK9 cells are deficient in deoxycytidine kinase (“dCK”) activity, an enzyme required for the initial phosphorylation of dFdC to dFdCMP (see FIG. 2).
# [2] = TC50 MTS assay: PK9 cells; type: cell-based; settings: human, 48 h drug treatment
# Protocol: as §1, §2
# MTS Assay: The reagents from CellTiter 96 kit (Promega Corporation, Madison, Wis.) were thawed at room temperature in the dark for 1 h. The 96-well plate was removed from the 37° C. incubator at 48 h after drug treatment. […] The absorbance of each well at 490 nm and 650 nm was determined using the Flexstation 3 microplate reader in endpoint mode every hour for 3 h. The solutions in the wells were mixed prior to each reading. […]
# [3] = TC50 MTS assay with human cancer cell lines: MCF-7; type: cell-based; settings: MCF-7 cells, 96 h drug treatment
# Protocol: as §1, §2, §3, §4
# [4] = TC50 MTS assay with human cancer cell lines: HEPG2; type: cell-based; settings: HEPG2 cells, 96 h drug treatment
# Protocol: as §1, §2, §3, §4
# Huh7 cells = assay: in vitro; settings: control Huh7 cells; 48 h drug exposure; MTS
# Protocol: Plating Cells: The Huh7 cell line was passaged when it was at about 70% confluency. The cells were counted using a hemocytometer, followed by dilution of the cells to 0.5×10^5 cells per mL in DMEM+10% FBS. The cells were plated at 100 μL (5,000 cells) per well in a clear 96-well plate. The cells were allowed to attach for 24 hours at 37° C.
# Treating the cells: The media (DMEM media without phenol red+2% FBS media) was pre-warmed to 37° C. […] This provided a final DMSO concentration of 0.5%. The 100 mM stock of 3,5-dichlorobenzoic acid was diluted in DMEM without phenol red+2% FBS to a concentration of 0.5 mM. The working 0.5 mM diluted test drugs were serially diluted in DMEM without phenol red+2% FBS+0.5% DMSO in order to maintain a constant concentration of DMSO in each condition. The 96-well plate was removed from the 37° C. incubator, and the media on the plate was replaced with media containing diluted test drug.
# as §3, with “The data were fit” for “Fit Data”, “Alternatively,” for “Alternatively, fit”, “data can be fit” for “data”
# [5] = Huh-7, 48 h, Huh7 cells containing HCV luciferase replicon, cells exposed to drug for 48 h
Compound,IC50 (HCV luciferase replicon; [5]) [nM],"IC50 (HCV luciferase replicon; Huh-7, 48 h, cells incubated with drug continuously for 48 h (Table 5)) [nM]","IC50 (HCV luciferase replicon; Huh-7, cells incubated with drug for 2 h, followed by 46 h without drug) [nM]",Therapeutic Index (TC50/IC50) (HCV luciferase replicon),CC50 at 96 h [1] [nM],CC50 at 48 h [2] [µM],CC50 at 96 h [3] [nM],CC50 at 96 h [4] [nM],TC50 (Huh7 cells) [nM]
"COc1cc(C(=O)Nc2ccn([C@@H]3O[C@H](CO)[C@@H](O)C3(F)F)c(=O)n2)cc(OC)c1OC [GTB, N^4-(3,4,5-Trimethoxybenzoyl)gemcitabine]",49.3 ± 8.8,49.3 ± 8.8,2770 ± 265,10040,1280 ± 260,1.69 ± 0.1,566 ± 118,1670 ± 420,–
"O=C(Nc1ccn([C@@H]2O[C@H](CO)[C@@H](O)C2(F)F)c(=O)n1)c1cc(Cl)cc(Cl)c1 [GCB, N^4-(3,5-Dichlorobenzoyl)gemcitabine]",25.5 ± 2.2,–,–,4310,1190 ± 180,–,326 ± 88,633 ± 207,> 100000
